In article PMC4579270, “Identification and Characterization of an Irreversible Inhibitor of CDK2” (Chemistry & Biology, 2015):
Where two headings read alike, the source gives them in different places.

Legend:
Format in all cases: biochemical
MPSK1 = MPSK1 (Homo sapiens, UniProt O75716); assay: Dundee protein kinase screen; settings: MPSK1, 1µM; read-out: %Remaining activity at 1µM NU6300
Experimental: (§1) Prior to determining its cellular activity, we carried out a screen to assess its selectivity against a panel of 131 protein kinases under conditions that would not distinguish between a reversible or irreversible mode of action. […] These 13 kinases and 29 additional kinases, selected for their known sensitivity to other inhibitors within the purine series, were then tested in a modified screening format in which the assay was repeated following a 4-hr pre-incubation (Table S3B). […] However, conformational flexibility around the active site may promote such an interaction with a residue from another part of the structure ([Martin et al., 2012]).
(§2) Table S3, Related to Figure 4. NCL-0006300 protein kinase selectivity. (A) NU6300 was tested at a single concentration of 1µM against 131 protein kinases present in a Dundee protein kinase screen (Bain et al., 2007). Values given are % activity remaining and are the average of duplicate measurements: 0-25% (red), 26-50% (yellow), 51-80% […]
(§3) (black) and above 81% (green). […]

p38β MAPK = p38β MAPK (Homo sapiens, UniProt Q15759); assay: Dundee protein kinase screen; settings: read-out: %Remaining activity at 1µM NU6300
Experimental: as §1, §2, §3

CDK9-Cyclin T1 = CDK9-Cyclin T1 (Homo sapiens, UniProt P50750); assay: Dundee kinase screen re-test (standard format and 4 hour pre-incubation); settings: CDK9/cyclin T1, 0.5µM
How it was run: (§4)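 Selectivity panel of 131 protein kinases, inhibitor tested at a single concentration of 1 µM; values are % kinase activity remaining, mean of duplicates. Re-test of selected kinases used 0.5 µM in the standard format and again after a 4 hour pre-incubation with the inhibitor.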

JNK3 = JNK3 (Homo sapiens, UniProt P53779); assay: as above; settings: JNK3, 0.5µM
How it was run: as §4

MARK4 = molecular target: T1, MARK4 (Homo sapiens, UniProt Q96L34); assay: as above; settings: MARK4, 0.5µM
T1 sequence (Q96L34 1-752): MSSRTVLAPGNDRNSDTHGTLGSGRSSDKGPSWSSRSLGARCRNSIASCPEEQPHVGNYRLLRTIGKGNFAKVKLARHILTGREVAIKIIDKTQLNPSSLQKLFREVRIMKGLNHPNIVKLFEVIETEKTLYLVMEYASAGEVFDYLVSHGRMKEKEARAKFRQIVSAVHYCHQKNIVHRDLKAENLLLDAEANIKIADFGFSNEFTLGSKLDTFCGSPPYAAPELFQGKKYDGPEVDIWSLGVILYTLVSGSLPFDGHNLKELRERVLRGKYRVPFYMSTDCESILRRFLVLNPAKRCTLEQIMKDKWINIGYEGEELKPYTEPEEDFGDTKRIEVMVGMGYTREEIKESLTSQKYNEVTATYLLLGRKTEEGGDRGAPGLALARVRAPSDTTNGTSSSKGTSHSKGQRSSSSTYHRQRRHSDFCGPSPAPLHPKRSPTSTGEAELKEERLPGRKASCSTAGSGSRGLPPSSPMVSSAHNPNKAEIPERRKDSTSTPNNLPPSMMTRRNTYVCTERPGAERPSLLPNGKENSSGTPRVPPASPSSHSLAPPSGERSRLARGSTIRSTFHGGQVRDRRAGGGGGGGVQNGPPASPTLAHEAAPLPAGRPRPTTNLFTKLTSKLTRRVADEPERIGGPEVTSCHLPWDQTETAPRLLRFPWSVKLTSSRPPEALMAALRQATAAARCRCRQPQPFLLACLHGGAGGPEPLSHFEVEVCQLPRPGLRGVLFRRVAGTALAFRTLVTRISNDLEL
How it was run: as §4

PDK1 = molecular target: T2, PDK1 (Homo sapiens, UniProt O15530); assay: as above; settings: PDK1, 0.5µM
T2 sequence (O15530 1-556): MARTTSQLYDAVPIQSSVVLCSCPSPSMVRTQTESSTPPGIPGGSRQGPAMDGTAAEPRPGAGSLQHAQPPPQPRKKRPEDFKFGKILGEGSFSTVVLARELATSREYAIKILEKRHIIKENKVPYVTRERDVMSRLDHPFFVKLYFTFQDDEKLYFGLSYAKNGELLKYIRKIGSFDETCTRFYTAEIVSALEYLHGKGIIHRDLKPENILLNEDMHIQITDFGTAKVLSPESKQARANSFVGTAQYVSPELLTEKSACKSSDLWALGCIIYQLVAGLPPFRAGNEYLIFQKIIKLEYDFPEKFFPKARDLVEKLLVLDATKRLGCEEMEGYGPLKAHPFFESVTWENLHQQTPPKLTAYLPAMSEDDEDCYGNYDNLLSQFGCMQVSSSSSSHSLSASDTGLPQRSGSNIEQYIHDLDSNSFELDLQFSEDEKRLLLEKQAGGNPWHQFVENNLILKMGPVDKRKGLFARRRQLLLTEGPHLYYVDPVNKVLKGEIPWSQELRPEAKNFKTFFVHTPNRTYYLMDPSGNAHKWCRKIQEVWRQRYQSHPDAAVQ
How it was run: as §4

TSSK1 = molecular target: T3, TSSK1 (Homo sapiens, UniProt Q9BXA7); assay: as above; settings: TSSK1, 0.5µM
T3 sequence (Q9BXA7 1-367): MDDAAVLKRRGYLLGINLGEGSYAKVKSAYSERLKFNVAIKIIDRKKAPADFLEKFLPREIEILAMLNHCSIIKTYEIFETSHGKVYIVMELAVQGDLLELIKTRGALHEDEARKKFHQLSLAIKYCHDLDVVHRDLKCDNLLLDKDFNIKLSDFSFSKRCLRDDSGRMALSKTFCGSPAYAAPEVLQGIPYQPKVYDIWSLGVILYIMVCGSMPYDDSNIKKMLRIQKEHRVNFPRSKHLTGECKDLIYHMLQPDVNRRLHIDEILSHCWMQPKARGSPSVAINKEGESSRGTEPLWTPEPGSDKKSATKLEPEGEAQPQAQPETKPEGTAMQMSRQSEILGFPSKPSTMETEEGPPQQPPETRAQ
How it was run: as §4

[1] = 4hr RT preincubation, read-out: %Remaining activity at 0.5µM NU6300 - 4hr RT preincubation
[2] = usual format, read-out: %Remaining activity at 0.5µM NU6300 - Usual assay format

CDK9-Cyclin T1, sequence (P50750 whole entry): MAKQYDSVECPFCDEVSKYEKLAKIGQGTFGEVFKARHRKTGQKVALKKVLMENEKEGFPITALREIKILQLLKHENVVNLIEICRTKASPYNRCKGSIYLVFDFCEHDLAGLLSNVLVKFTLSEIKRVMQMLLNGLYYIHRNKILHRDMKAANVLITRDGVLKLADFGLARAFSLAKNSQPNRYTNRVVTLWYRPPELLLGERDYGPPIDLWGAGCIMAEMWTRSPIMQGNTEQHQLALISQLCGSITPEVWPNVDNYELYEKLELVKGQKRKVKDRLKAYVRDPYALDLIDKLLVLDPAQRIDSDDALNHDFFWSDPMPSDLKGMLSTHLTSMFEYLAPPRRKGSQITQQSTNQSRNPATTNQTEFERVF
CDK9-Cyclin T1, sequence (O60563 whole entry partner): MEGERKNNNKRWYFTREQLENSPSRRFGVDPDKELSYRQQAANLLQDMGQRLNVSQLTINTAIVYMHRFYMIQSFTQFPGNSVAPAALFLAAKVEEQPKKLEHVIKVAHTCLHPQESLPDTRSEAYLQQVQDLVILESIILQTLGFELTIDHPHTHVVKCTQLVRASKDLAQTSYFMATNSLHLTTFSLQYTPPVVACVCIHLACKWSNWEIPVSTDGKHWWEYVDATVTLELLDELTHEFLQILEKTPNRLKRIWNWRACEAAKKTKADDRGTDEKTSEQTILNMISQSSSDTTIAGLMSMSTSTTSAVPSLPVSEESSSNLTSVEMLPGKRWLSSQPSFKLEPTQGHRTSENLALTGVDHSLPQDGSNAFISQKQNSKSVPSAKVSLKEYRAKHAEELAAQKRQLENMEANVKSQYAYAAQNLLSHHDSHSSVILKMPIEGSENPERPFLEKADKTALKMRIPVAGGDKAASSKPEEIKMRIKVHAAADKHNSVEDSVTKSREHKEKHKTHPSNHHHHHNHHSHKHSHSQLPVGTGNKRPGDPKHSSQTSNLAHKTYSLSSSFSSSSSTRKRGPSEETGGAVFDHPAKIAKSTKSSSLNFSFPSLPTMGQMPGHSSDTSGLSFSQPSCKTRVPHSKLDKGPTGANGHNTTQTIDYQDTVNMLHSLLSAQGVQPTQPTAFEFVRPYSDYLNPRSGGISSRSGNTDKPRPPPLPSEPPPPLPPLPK
JNK3, sequence (P53779 whole entry): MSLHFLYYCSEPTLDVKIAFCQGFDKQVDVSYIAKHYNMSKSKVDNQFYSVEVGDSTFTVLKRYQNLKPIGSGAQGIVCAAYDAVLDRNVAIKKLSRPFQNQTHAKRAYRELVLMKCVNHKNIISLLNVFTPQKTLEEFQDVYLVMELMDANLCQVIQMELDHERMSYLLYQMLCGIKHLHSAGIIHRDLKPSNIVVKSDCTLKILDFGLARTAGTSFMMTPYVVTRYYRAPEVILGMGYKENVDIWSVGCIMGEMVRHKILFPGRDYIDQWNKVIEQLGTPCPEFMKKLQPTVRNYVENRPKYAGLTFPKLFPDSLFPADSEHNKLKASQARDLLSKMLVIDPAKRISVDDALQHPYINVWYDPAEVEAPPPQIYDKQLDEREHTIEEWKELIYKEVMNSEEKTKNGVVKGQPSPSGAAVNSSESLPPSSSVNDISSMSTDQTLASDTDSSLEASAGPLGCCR
MPSK1, sequence (O75716 whole entry): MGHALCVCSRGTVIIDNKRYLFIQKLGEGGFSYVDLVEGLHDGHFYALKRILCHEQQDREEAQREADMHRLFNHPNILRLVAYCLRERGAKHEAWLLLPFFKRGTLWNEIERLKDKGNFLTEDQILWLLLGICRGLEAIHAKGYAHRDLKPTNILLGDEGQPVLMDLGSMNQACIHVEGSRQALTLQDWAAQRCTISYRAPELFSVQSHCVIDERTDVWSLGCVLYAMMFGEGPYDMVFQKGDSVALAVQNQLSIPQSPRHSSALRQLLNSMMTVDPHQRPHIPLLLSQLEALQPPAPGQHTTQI
p38β MAPK, sequence (Q15759 whole entry): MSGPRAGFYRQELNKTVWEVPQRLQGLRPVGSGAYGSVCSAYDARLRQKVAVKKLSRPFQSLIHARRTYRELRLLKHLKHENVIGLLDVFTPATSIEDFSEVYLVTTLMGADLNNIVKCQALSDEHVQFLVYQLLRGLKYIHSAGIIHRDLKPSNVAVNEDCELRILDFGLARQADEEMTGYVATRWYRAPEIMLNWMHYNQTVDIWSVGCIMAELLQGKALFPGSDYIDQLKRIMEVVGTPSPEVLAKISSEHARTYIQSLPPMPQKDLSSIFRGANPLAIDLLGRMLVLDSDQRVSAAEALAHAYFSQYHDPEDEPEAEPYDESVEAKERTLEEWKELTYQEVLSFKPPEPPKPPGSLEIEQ

C=CS(=O)(=O)c1ccc(Nc2nc(OCC3CCCCC3)c3nc[nH]c3n2)cc1 [NU6300, 6-(cyclohexylmethoxy)-N-(4-(vinylsulfonyl)phenyl)-9H-purin-2-amine]
remaining activity at 1 µM (MPSK1): 92% | remaining activity at 1 µM (p38β MAPK): 67% | remaining activity at 0.5 µM (CDK9-Cyclin T1; [1]): 127% | remaining activity at 0.5 µM (CDK9-Cyclin T1; [2]): 89% | remaining activity at 0.5 µM (JNK3; [1]): 98% | remaining activity at 0.5 µM (JNK3; [2]): 53% | remaining activity at 0.5 µM (MARK4; [1]): 52% | remaining activity at 0.5 µM (MARK4; [2]): 47% | remaining activity at 0.5 µM (PDK1; [1]): 40% | remaining activity at 0.5 µM (PDK1; [2]): 29% | remaining activity at 0.5 µM (TSSK1; [1]): 67% | remaining activity at 0.5 µM (TSSK1; [2]): 53%
